Data reported in patent US10519147B2 (Merck Sharp & Dohme Corp., priority 2015, dated 2019).

What was measured:
human Nav1.5 = target: T1, human Nav1.5 (Homo sapiens, UniProt Q14524); test: IonWorks Quattro automated patch-clamp, Nav1.5 (selectivity against Nav1.7); format: cell-based; conditions: IonWorks measurement, HEK 293 cells, inactivated state block
T1 construct: expressed in transfected cells; host or cells: HEK 293
Experimental: (§1) Compounds were tested on human Nav1.7 and Nav1.5 channels stably expressed in HEK 293 cells. […] Cells were sealed on a planar substrate using the Population Patch […] (PPC) technology. Electrical access was obtained using both nystatin and amphotericin. A double-pulse protocol was used for the determination of IC50 values for inactivated state block. Nav1.7 and Nav1.5 expressing cells were voltage clamped at −100 mV and −110 mV, respectively. A depolarizing prepulse to −10 mV (Nav1.7) or −30 mV (Nav1.5) for 1000 ms followed by a 10 ms repolarization to −100 mV (Nav1.7) or −110 mV (Nav1.5) was given to generate fractional channel inactivation of 50%, followed by a 10 ms test pulse to −10 mV (Nav1.7) or −30 mV (Nav1.5) to measure peak current in control conditions and after compound addition. The following recording solutions were used (mM). External: 150 NaCl, 2 CaCl2, 5 KCl, 1 Mg Cl2, 10 HEPES, 12 Dextrose; internal: 120 CsF, 30 CsCl, 10 EGTA, 5 HEPES, 5 NaF, 2 MgCl2.
(§2) For all electrophysiology experiments, offline analysis was used to determine percent inhibition as a function of drug concentration. IC50 values were determined by fitting to the Hill equation.

human Nav1.7 = target: T2, human Nav1.7 (Homo sapiens, UniProt Q15858); test: IonWorks Quattro automated patch-clamp, inactivated state block of Nav1.7; format: cell-based; conditions: channels stably expressed in HEK 293 cells; double-pulse protocol, inactivated state block; read-out: potency for the Nav 1.7 sodium ion channel (IC50, as measured by IonWorks)
T2 construct: expressed in transfected cells; host or cells: HEK 293
Experimental: as §1, §2

T2 sequence (Q15858 whole entry): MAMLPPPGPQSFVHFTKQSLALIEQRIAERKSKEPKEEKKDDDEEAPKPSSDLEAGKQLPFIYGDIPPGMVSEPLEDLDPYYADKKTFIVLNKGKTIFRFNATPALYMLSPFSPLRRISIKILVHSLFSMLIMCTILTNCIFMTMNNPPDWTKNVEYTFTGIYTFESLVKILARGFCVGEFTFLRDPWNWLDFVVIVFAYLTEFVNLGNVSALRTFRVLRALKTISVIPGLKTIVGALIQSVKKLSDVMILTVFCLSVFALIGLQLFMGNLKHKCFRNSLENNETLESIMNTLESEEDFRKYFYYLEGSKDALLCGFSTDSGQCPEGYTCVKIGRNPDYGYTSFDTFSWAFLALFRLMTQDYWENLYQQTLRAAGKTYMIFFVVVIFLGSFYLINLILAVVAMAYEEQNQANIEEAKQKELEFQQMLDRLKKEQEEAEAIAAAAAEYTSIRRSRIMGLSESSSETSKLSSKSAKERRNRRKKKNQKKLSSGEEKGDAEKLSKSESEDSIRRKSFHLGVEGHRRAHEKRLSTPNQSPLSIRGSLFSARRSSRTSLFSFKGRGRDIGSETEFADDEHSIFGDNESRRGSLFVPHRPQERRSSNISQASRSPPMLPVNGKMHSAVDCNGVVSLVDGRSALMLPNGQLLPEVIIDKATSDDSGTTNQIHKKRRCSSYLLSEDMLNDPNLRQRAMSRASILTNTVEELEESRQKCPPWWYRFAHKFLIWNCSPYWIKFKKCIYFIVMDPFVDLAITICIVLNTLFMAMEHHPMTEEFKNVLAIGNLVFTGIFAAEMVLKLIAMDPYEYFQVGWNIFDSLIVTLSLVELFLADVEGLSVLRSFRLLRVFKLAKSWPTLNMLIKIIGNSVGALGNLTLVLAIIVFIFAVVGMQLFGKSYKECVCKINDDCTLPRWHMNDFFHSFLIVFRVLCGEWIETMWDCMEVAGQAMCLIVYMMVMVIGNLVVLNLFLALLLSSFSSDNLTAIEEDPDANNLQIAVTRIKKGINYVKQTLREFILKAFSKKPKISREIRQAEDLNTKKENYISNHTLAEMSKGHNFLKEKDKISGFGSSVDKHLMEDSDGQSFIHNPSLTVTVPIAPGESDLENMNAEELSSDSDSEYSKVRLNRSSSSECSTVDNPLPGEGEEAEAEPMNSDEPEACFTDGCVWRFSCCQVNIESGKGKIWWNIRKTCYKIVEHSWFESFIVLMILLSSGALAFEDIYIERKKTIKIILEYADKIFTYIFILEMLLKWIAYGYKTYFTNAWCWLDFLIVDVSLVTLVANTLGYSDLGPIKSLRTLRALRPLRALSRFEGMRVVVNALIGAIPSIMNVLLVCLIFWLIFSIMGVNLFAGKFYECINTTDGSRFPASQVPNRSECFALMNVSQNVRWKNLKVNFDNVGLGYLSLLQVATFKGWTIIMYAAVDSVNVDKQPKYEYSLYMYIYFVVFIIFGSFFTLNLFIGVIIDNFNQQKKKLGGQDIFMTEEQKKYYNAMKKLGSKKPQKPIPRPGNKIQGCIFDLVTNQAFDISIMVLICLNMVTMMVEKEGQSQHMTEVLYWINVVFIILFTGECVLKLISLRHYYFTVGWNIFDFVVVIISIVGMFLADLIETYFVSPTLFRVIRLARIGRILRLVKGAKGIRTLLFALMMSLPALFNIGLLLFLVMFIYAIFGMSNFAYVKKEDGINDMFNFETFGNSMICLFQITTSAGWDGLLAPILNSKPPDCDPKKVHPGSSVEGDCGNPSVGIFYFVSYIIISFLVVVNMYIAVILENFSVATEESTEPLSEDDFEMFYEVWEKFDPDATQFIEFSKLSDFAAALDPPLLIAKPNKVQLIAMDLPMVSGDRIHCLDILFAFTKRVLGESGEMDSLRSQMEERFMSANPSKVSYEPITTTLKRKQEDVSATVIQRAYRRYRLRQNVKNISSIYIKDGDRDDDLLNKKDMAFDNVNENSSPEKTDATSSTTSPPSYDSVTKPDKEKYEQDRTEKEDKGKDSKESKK
T1 sequence (Q14524 whole entry): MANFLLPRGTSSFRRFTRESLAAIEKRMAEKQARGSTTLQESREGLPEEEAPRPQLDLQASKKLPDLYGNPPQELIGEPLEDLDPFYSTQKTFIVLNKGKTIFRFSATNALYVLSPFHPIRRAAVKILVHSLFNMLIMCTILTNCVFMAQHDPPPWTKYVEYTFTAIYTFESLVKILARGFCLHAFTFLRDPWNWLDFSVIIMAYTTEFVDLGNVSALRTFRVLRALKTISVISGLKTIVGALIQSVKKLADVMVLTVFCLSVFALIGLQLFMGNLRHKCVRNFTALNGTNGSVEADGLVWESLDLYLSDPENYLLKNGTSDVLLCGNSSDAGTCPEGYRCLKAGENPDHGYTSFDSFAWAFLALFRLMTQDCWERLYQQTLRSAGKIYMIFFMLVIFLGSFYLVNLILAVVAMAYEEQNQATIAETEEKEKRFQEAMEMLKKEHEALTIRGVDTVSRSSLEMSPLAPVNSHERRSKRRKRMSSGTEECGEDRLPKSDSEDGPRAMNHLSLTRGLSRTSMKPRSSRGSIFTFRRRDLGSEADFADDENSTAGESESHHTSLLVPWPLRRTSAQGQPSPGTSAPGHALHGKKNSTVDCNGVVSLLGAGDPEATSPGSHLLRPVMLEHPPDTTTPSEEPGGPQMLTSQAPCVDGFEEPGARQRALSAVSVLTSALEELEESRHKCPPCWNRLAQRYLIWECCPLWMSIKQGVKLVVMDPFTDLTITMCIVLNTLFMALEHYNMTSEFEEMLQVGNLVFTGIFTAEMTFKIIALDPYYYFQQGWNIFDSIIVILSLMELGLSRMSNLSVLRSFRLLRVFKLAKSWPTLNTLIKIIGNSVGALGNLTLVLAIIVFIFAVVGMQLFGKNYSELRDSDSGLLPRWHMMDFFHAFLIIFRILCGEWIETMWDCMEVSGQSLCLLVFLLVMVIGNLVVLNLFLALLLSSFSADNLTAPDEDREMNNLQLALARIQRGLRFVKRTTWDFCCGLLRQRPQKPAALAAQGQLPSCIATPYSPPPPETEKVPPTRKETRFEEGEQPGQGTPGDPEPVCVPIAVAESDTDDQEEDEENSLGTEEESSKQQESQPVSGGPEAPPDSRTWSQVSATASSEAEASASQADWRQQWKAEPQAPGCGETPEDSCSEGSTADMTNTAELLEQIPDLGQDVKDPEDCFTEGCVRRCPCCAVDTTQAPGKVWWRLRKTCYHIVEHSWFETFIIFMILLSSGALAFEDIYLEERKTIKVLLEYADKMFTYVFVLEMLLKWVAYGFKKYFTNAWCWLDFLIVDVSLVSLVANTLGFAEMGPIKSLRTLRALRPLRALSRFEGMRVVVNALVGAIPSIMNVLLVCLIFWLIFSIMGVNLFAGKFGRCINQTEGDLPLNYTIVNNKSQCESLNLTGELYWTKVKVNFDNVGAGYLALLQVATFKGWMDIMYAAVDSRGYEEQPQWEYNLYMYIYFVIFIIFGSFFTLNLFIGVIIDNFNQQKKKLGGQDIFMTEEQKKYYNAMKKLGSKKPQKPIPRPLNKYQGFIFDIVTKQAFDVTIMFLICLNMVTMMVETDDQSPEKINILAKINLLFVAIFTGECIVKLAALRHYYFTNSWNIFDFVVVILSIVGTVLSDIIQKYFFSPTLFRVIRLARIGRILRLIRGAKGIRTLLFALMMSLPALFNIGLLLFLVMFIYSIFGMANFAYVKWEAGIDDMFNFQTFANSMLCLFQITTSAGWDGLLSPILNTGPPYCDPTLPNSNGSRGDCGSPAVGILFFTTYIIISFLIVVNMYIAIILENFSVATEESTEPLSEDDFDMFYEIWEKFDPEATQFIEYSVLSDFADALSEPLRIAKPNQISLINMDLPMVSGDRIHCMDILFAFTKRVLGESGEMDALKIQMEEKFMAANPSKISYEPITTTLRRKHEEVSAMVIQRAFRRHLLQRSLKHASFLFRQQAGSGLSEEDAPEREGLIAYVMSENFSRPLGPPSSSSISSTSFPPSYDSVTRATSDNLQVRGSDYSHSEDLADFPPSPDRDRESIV

SMILES	IC50 (human Nav1.7)	ratio of Nav 1.7 potency:Nav 1.5 potency (human Nav1.5)	ratio of Nav 1.7 potency:Nav 1.5 potency (human Nav1.5; listed as Ex1-04)
NC1CCC1NCCCCNc1cc(F)c(S(=O)(=O)Nc2ncns2)cc1Cl (single isomer, unassigned) [Ex 16-82, 4-[4-[[(1S,2S) or (1R,2R)-2-aminocyclobutyl]amino]butylamino]-5-chloro-2-fluoro-N-(1,2,4-thiadiazol-5-yl) benzenesulfonamide]	3.3 nM	> 10000	
O=S(=O)(Nc1nccs1)c1cc(Cl)c(NCCCCNC[C@@H]2CCCCN2)cc1F [Ex 1-04, 5-chloro-2-fluoro-4-[(4-{[(2S)-piperidin-2-ylmethyl]amino}butyl)amino]-N-1,3-thiazol-2-yl-benzenesulfonamide]	9.6 nM	> 3440	3440
N[C@H]1CCCC[C@@H]1NCCCCNc1cc(F)c(S(=O)(=O)Nc2nccs2)cc1Cl [Ex 1-07, 4-[(4-{[(1S,2S)-2-amino-cyclohexyl]amino}butyl)-amino]-5-chloro-2-fluoro-N-1,3-thiazol-2-yl-benzenesulfonamide]	18 nM	> 1800	
C[C@H](NCCCCNc1cc(F)c(S(=O)(=O)Nc2nccs2)cc1Cl)[C@@H]1CCCN1 [Ex 1-27, 5-chloro-2-fluoro-4-{[4-({(1S)-1-[(2S)-pyrrolidin-2-yl]ethyl}amino)butyl]-amino}-N-1,3-thiazol-2-yl-benzenesulfonamide]	31 nM	> 1070	
O=S(=O)(Nc1ncns1)c1cc(F)c(NCCCCNC[C@@H]2CCCN2)cc1F [Ex 7-7, 2,5-difluoro-4-[(4-{[(2S)-pyrrolidin-2-ylmethyl]amino}butyl)amino]-N-1,2,4-thiadiazol-5-ylbenzenesulfonamide]	80 nM	> 410	
CNCCNCCCCNc1cc(F)c(S(=O)(=O)Nc2ncc(Cl)s2)cc1Cl [Ex 16-49, 5-chloro-N-(5-chloro-1,3-thiazol-2-yl)-2-fluoro-4-[(4-{[2-(methylamino)ethyl]-amino}butyl)amino] benzene-sulfonamide]	14 nM		
CNCCCNCCCCNc1cc(F)c(S(=O)(=O)Nc2nccs2)cc1Br [Ex 16-55, 5-bromo-2-fluoro-4-[(4-{[3-(methylamino)propyl]amino}butyl)amino]-N-1,3-thiazol-2-ylbenzenesulfonamide]	18 nM		
O=S(=O)(Nc1ncns1)c1cc(Cl)c(NCCCCNCCCNCCF)cc1F [Ex 16-58, 5-chloro-2-fluoro-4-{[4-({3-[(2-fluoroethyl)amino]-propyl}amino)butyl]amino}-N-1,2,4-thiadiazol-5-yl-benzenesulfonamide]	37 nM		
CC(C)(CN)NCCCCNc1cc(F)c(S(=O)(=O)Nc2ncc(F)s2)cc1Cl [Ex 16-61, 4-({4-[(2-amino-1,1-dimethylethyl)amino]butyl}amino)-5-chloro-2-fluoro-N-(5-fluoro-1,3-thiazol-2-yl)benzenesulfonamide]	21 nM		
NC1(CNCCCCNc2cc(F)c(S(=O)(=O)Nc3ncc(F)s3)cc2Cl)CC1 [Ex 16-63, 4-[(4-{[(1-aminocyclopropyl)methyl]amino}butyl)amino]-5-chloro-2-fluoro-N-(5-fluoro-1,3-thiazol-2-yl)benzenesulfonamide]	56 nM		
CN[C@H](C)CNCCCCNc1cc(F)c(S(=O)(=O)Nc2ncc(F)s2)cc1Cl [Ex 16-65, 5-chloro-2-fluoro-N-(5-fluoro-1,3-thiazol-2-yl)-4-[(4-{[(2R)-2-(methylamino)propyl]amino}butyl)amino] benzenesulfonamide]	28 nM		
C[C@@H](CN)NCCCCNc1cc(F)c(S(=O)(=O)Nc2ncc(F)s2)cc1Cl [Ex 16-66, 4-[(4-{[(1S)-2-amino-1-methylethyl]amino}butyl)amino]-5-chloro-2-fluoro-N-(5-fluoro-1,3-thiazol-2-yl)benzenesulfonamide]	16 nM		
NC1(CNCCCCNc2cc(F)c(S(=O)(=O)Nc3ncns3)cc2Br)CC1 [Ex 16-89, 4-[4-[(1-aminocyclopropyl)methylamino]butylamino]-5-bromo-2-fluoro-N-(1,2,4-thiadiazol-5-yl)benzenesulfonamide]	12 nM		
CNCCNCCCCNc1cc(F)c(S(=O)(=O)Nc2ncns2)cc1Br [Ex 16-90, 5-bromo-2-fluoro-4-[4-[2-(methylamino)ethylamino]butylamino]-N-(1,2,4-thiadiazol-5-yl)benzenesulfonamide]	5.1 nM		
CNCCCNCCCCNc1cc(F)c(S(=O)(=O)Nc2ncns2)cc1Br [Ex 16-91, 5-bromo-2-fluoro-4-[4-[3-(methylamino)propylamino]butylamino]-N-(1,2,4-thiadiazol-5-yl)benzenesulfonamide]	14 nM		
CC1(NCCCCNc2cc(F)c(S(=O)(=O)Nc3ncns3)cc2Br)CCNC1 (centres unmarked) [Ex 16-96, 5-bromo-2-fluoro-4-[4-[(3-methylpyrrolidin-3-yl)amino]butylamino]-N-(1,2,4-thiadiazol-5-yl)benzenesulfonamide]	15 nM		
NCCCNCCCCNc1cc(F)c(S(=O)(=O)Nc2ncns2)cc1Br [Ex 16-97, 4-[4-(3-aminopropylamino)butylamino]-5-bromo-2-fluoro-N-(1,2,4-thiadiazol-5-yl)benzenesulfonamide]	18 nM		
O=S(=O)(Nc1ncns1)c1cc(Br)c(NCCCCN[C@H]2CCNC2)cc1F [Ex 16-100, (S)-5-bromo-2-fluoro-4-((4-(pyrrolidin-3-ylamino)butyl)amino)-N-(1,2,4-thiadiazol-5-yl)benzenesulfonamide]	15 nM		

The next lines start with results.

IC50 (human Nav1.7)	SMILES	ratio of Nav 1.7 potency:Nav 1.5 potency (human Nav1.5)	ratio of Nav 1.7 potency:Nav 1.5 potency (human Nav1.5; listed as Ex1-04)
4.7 nM	NC1CCC1NCCCCNc1cc(F)c(S(=O)(=O)Nc2ncns2)cc1Cl (single isomer, unassigned) [Ex 16-83, 4-[4-[[(1R,2R) or (1S,2S)-2-aminocyclobutyl]amino]butylamino]-5-chloro-2-fluoro-N-(1,2,4-thiadiazol-5-yl)benzenesulfonamide]	> 7020	
8.4 nM	N[C@@H]1CCCC[C@H]1NCCCCNc1cc(F)c(S(=O)(=O)Nc2nccs2)cc1Cl [Ex 1-28, 4-[(4-{[(1R,2R)-2-aminocyclohexyl]amino}butyl)amino]-5-chloro-2-fluoro-N-1,3-thiazol-2-ylbenzenesulfonamide]	> 3930	
52 nM	N[C@@H]1CCC[C@@H]1NCCCCNc1cc(F)c(S(=O)(=O)Nc2nccs2)cc1Cl [Ex 1-29, 4-[(4-{[(1S,2R)-2-aminocyclopentyl]amino}butyl)amino]-5-chloro-2-fluoro-N-1,3-thiazol-2-ylbenzenesulfonamide]	> 635	
11 nM	CNCCNCCCCNc1cc(F)c(S(=O)(=O)Nc2nccs2)cc1Br [Ex 16-50, 5-bromo-2-fluoro-4-[(4-{[2-(methylamino)ethyl]amino}-butyl)amino]-N-1,3-thiazol-2-ylbenzenesulfonamide]		
12 nM	CNCCCNCCCCNc1cc(F)c(S(=O)(=O)Nc2ncc(F)s2)cc1Br [Ex 16-56, 5-bromo-2-fluoro-N-(5-fluoro-1,3-thiazol-2-yl)-4-[(4-{[3-(methylamino)-propyl]amino}butyl)amino]-benzenesulfonamide]		
11 nM	C[C@H](CN)NCCCCNc1cc(F)c(S(=O)(=O)Nc2ncns2)cc1Cl [Ex 16-60, 4-[(4-{[(1R)-2-amino-1-methylethyl]amino}butyl)-amino]-5-chloro-2-fluoro-N-1,2,4-thiadiazol-5-yl-benzenesulfonamide]		
16 nM	C[C@@H](CN)NCCCCNc1cc(F)c(S(=O)(=O)Nc2ncns2)cc1Cl [Ex 16-67, 4-[(4-{[(1S)-2-amino-1-methylethyl]amino}butyl)amino]-5-chloro-2-fluoro-N-1,2,4-thiadiazol-5-ylbenzenesulfonamide]		
18 nM	NC1(CNCCCCNc2cc(F)c(S(=O)(=O)Nc3ncc(F)s3)cc2Cl)CCC1 [Ex 16-69, 4-[(4-{[(1-aminocyclobutyl)methyl]amino}butyl)amino]-5-chloro-2-fluoro-N-(5-fluoro-1,3-thiazol-2-yl)benzenesulfonamide]		
11 nM	N[C@H]1CCC[C@@H]1NCCCCNc1cc(F)c(S(=O)(=O)Nc2nccs2)cc1Cl [Ex 16-72, 4-[(4-{[(1S,2S)-2-aminocyclopentyl]amino}butyl)amino]-5-chloro-2-fluoro-N-1,3-thiazol-2-ylbenzenesulfonamide]		
19 nM	O=S(=O)(Nc1ncc(F)s1)c1cc(Cl)c(NCCCCNC[C@H]2CCN2)cc1F [Ex 16-73, 4-[(4-{[(2R)-azetidin-2-ylmethyl]amino}butyl)amino]-5-chloro-2-fluoro-N-(5-fluoro-1,3-thiazol-2-yl)benzenesulfonamide]		
12 nM	C[C@H](CN)NCCCCNc1cc(F)c(S(=O)(=O)Nc2ncns2)cc1Br [Ex 16-78, 4-[(4-{[(1R)-2-amino-1-methylethyl]amino}butyl)amino]-5-bromo-2-fluoro-N-1,2,4-thiadiazol-5-ylbenzenesulfonamide]		
